Each structure is given as a SMILES string.

Holding throughout (format): cell-based
For assay [1], the system named is GLS1. In words: GLS1 expression analysis (ELISA) in KKLS. The following applies: human gastric undifferentiated carcinoma cells (KKLS), at least 200 µg/mL or more, 24 hours; effect increased from 200 to 1000 µg/mL; Fig. 12. The method, then:
Human gastric undifferentiated carcinoma cells (KKLS) were cultured in RPMI 1640 (manufactured by Nissui Pharmaceutical Co., Ltd.) containing 10% FBS. The cultured cells were collected by trypsin treatment. The collected cells were seeded in a 6-well plate, and when they reached 100% confluence, RPMI 1640 containing the test sample (2'-FL and lactose) at 50 µg/mL, 200 µg/mL, or 1000 µg/mL was added, and cultured for 24 hours in a 37°C, 5% CO2 incubator. The culture supernatant was removed, the cells were washed twice with PBS, and 0.20 mL of RIPA buffer was added to extract total protein. Protein in each protein extract was quantified by the Bradford assay.
Protein extracts were collected in the same manner as in [Example 10-1 B. Human gastric undifferentiated carcinoma cells (KKLS)], [Example 10-1 C. Mouse microglial cells (BV2)], [Example 10-1 D. Human gingival fibroblasts (Gin-1)], and [Example 10-1 E. Human umbilical vein endothelial cells (HUVEC)], respectively, except that a medium same as the above-mentioned medium but not containing the test sample was used instead of the medium containing the test sample, and protein in each protein extract was quantified by the Bradford assay.
An ELISA method was performed using an antibody against GLS1 to measure the amount of GLS1 in the samples. […]
(In an ELISA, binding on a coated surface is turned into a signal by an enzyme label.)

In assay [2] the test system is GLS1. In words: GLS1 expression analysis (ELISA) in HUVEC after high glucose treatment. The settings on record: human umbilical vein endothelial cells (HUVEC), 50 µg/mL to 1000 µg/mL, 24 hours; effect increased as content increased; Fig. 12. The method, then:
Human umbilical vein endothelial cells (HUVEC) were cultured in DMEM + 10% FBS + 5 mM glucose (normal medium). The cultured cells were collected by trypsin treatment. The collected cells were seeded in a 10 cm dish and cultured for 24 hours in a 37°C, 5% CO2 incubator. Thereafter, a treatment of exposing the cells to DMEM + 10% FBS + 30 mM glucose (high glucose medium) for 10 hours and to normal medium for 14 hours was performed for 7 days. After 7 days, normal medium containing the test sample (2'-FL and lactose) at 50 µg/mL, 200 µg/mL, or 1000 µg/mL was added, and cultured for 24 hours in a 37°C, 5% CO2 incubator. The culture supernatant was removed, the cells were washed twice with PBS, and 0.20 mL of RIPA buffer was added to extract total protein. Protein in each protein extract was quantified by the Bradford assay.
Protein extracts were collected in the same manner as in [Example 10-1 B. Human gastric undifferentiated carcinoma cells (KKLS)], [Example 10-1 C. Mouse microglial cells (BV2)], [Example 10-1 D. Human gingival fibroblasts (Gin-1)], and [Example 10-1 E. Human umbilical vein endothelial cells (HUVEC)], respectively, except that a medium same as the above-mentioned medium but not containing the test sample was used instead of the medium containing the test sample, and protein in each protein extract was quantified by the Bradford assay. […]

For assay [3], the system named is human senescent dermal fibroblasts (NB1RGB) with a PDL of 50 or more. As to the kind of experiment: Cell proliferation rate (MTT) of senescent dermal fibroblasts. The settings on record: 50 µg/mL to 200 µg/mL, 2 days, suppression increased as content increased, Fig. 3. The method, then: Human normal dermal fibroblasts (NB1RGB) with a PDL of 30 or less and human senescent dermal fibroblasts (NB1RGB) with a PDL of 50 or more were each cultured using DMEM containing 10% FBS. The cultured cells were collected by trypsin treatment. The collected cells were seeded in a 96-well microplate at a concentration of 5.0 x 10^3 cells/well and cultured overnight. Thereafter, the cells were cultured for 2 days at 37°C in a medium for fibroblast proliferation (FBS-free) to which a test sample (sucrose or 2'-fucosyllactose) was added to a concentration of 50 µg/mL, 100 µg/mL,or 200 µg/mL. The medium was replaced with FBS-free DMEM medium, then 10 µL/well of 5 mg/mL 3-[4,5-dimethylthiazol-2-yl]-2,5-diphenyltetrazolium bromide (MTT) was added, and the cells were cultured at 37°C for 3 hours. […] After extraction, the absorbance of formazan (As, 492 nm) was measured with a microplate reader. […]
Human normal dermal fibroblasts with a PDL of 30 or less and human senescent fibroblasts with a PDL of 50 or more were each cultured and the absorbance of formazan was measured in the same manner as in Example 2-1, except that no test sample was added. The obtained absorbance was designated as Ab, and the cell proliferation rate represented by the above formula (1) was determined for each case of PDL of 30 or less and PDL of 50 or more.

Assay [4] concerns Human normal epidermal keratinocytes (HaCaT). As to the kind of experiment: Cell viability (Cell Counting Kit-8) of tunicamycin-treated epidermal keratinocytes. The settings on record: tunicamycin 0.1 µg/mL, 50 µg/mL to 200 µg/mL, 24 hours, effect increased as content increased, Fig. 5. The method, then:
Human normal epidermal keratinocytes (HaCaT) were cultured using DMEM containing 10% FBS. The cultured cells were collected by trypsin treatment. The collected cells were seeded in a 96-well plate, and when they reached 100% confluence, tunicamycin, an agent that induces endoplasmic reticulum stress, was added at 0.1 µg/mL, and the cells were cultured for 24 hours. A group was also prepared in which FBS-free DMEM medium containing a test sample (2'-fucosyllactose) at 50 µg/mL, 100 µg/mL, or 200 µg/mL was added simultaneously with tunicamycin, and cultured for 24 hours. After completion of culture, the viability of human normal epidermal keratinocytes was evaluated using Cell Counting Kit-8 (manufactured by Dojindo Laboratories). The measurement wavelength (As) was set to 450 nm, and the reference wavelength was set to 620 nm.
Human normal epidermal keratinocytes were cultured and the absorbance at a measurement wavelength of 450 nm was measured in the same manner as in Example 4-1, except that tunicamycin and the test sample were not added. The obtained absorbance was designated as Ab, and the cell viability represented by the above formula (1) was determined.
In general terms: Formazan colour is commonly taken as a measure of viable cells.

As for `C[C@@H]1O[C@@H](O[C@H]2[C@H](O[C@H]3[C@H](O)[C@@H](O)C(O)O[C@@H]3CO)O[C@H](CO)[C@H](O)[C@@H]2O)[C@@H](O)[C@H](O)[C@@H]1O` (stereo partly shown) [2'-FL, 2'-fucosyllactose], the GLS1 expression result in assay [1] and in assay [2] was “suppressed GLS1 expression” each time. Besides, the “proliferation of senescent fibroblasts (cell proliferation rate)” value in assay [3] is given as “suppressed the proliferation of senescent fibroblasts”. Also, in assay [4], the “endoplasmic reticulum stress (cell viability)” value is on record as “ameliorated endoplasmic reticulum stress”.

For the origin of these results see patent EP4670722A1, “PROPHYLACTIC OR AMELIORATING AGENT FOR CELL AGING” (Kyowa Pharma Chemical Co., Ltd., priority 2023, dated 2024).
